What was measured:
[1] = system: T1, μ-calpain (derived from human erythrocyte); experiment: μ-calpain inhibitory activity (casein substrate, Coomassie brilliant blue); format: biochemical; conditions: 0.5 mg/mL casein, 30° C. for 60 min; read-out: 50% enzyme inhibitory concentration [IC50 (μM)] μ-calpain
T1 construct: μ-calpain (derived from human erythrocyte, manufactured by Cosmo Bio Co., Ltd.); purchased Cosmo Bio Co., Ltd; host or cells: human erythrocyte (natural source)
Method: The μ-calpain and m-calpain inhibitory activities were determined according to the method described in a reference [Anal. Biochem. vol. 208, 387-392 (1993)]. To be specific, a reaction mixture (200 μL) containing 0.5 mg/mL casein, 50 mM Tris-HCl buffer (pH 7.4), 20 mM dithiothreitol and 0.03 enzyme unit of μ-calpain (derived from human erythrocyte, manufactured by Cosmo Bio Co., Ltd.) or m-calpain (derived from pig kidney, manufactured by Cosmo Bio Co., Ltd.), dimethyl sulfoxide solution (2.5 μL) containing various concentrations of a test drug and 20 mM aqueous calcium chloride solution (50 μL) were added to a 96 well plate. After reaction at 30° C. for 60 min, the reaction mixture (100 μL) was transferred to a different 96 well plate, and purified water (50 μL) and 50% Coomassie brilliant blue solution (100 μL) were added. The plate was left standing at room temperature for 15 min and absorbance at 595 nm was measured. Using a value, measured after treating in the same manner without a test drug, as a control and a value, obtained by adding 1 mM EDTA instead of 20 mM aqueous calcium chloride solution, as a blank value, an inhibitory rate was calculated from the following formula and the amount (IC50) necessary for 50% inhibition was determined. Inhibitory rate (%)={1−(measured value−blank value)/(control value−blank value)}×100 Test Results 1

Row | Compound | IC50 [1] | melting point
1 | CC(C)C[C@@H]1OC(O)[C@H](Cc2ccccc2)NC1=O (stereo partly drawn) [Compound 1, (2S,5S)-5-benzyl-6-hydroxy-2-(2-methylpropyl)-3-morpholinone] | 0.7 µM | –
2 | CC(C)C[C@@H]1OC(O)[C@H](CCc2ccccc2)NC1=O (stereo partly drawn) [Compound 2, (2S,5S)-6-hydroxy-2-(2-methylpropyl)-5-(2-phenylethyl)-3-morpholinone] | 0.51 µM | 94.1 to 95.8 °C
3 | CC(C)C[C@@H]1OC(O)[C@H](Cc2ccc3ccccc3c2)NC1=O (stereo partly drawn) [Compound 3, (2S,5S)-6-hydroxy-2-(2-methylpropyl)-5-(2-naphthylmethyl)-3-morpholinone] | 0.49 µM | 86.5 to 88.5 °C
4 | CC(C)C[C@@H]1OC(O)[C@@H](Cc2ccccc2)NC1=O (stereo partly drawn) [Compound 4, (2S,5R)-5-benzyl-6-hydroxy-2-(2-methylpropyl)-3-morpholinone] | 5.9 µM | 130.9 to 131.8 °C
5 | CC(C)[C@@H]1OC(O)[C@H](Cc2ccccc2)NC1=O (stereo partly drawn) [Compound 5, (2S,5S)-5-benzyl-6-hydroxy-2-(1-methylethyl)-3-morpholinone] | 2.3 µM | –
6 | CC(C)[C@@H]1OC(O)[C@H](CCc2ccccc2)NC1=O (stereo partly drawn) [Compound 6, (2S,5S)-6-hydroxy-2-(1-methylethyl)-5-(2-phenylethyl)-3-morpholinone] | 3.5 µM | –
7 | O=C1N[C@@H](Cc2ccccc2)C(O)O[C@H]1Cc1ccccc1 (stereo partly drawn) [Compound 7, (2S,5S)-2,5-dibenzyl-6-hydroxy-3-morpholinone] | 17 µM | 165.5 to 166 °C
8 | CC(C)C[C@@H]1OC(O)[C@H](Cc2ccc(O)cc2)NC1=O (stereo partly drawn) [Compound 8, (2S,5S)-6-hydroxy-5-((4-hydroxyphenyl)methyl)-2-(2-methylpropyl)-3-morpholinone] | 2.5 µM | –
9 | COc1ccc(C[C@@H]2NC(=O)[C@H](CC(C)C)OC2O)cc1 (stereo partly drawn) [Compound 9, (2S,5S)-6-hydroxy-5-((4-methoxyphenyl)methyl)-2-(2-methylpropyl)-3-morpholinone] | 0.68 µM | –
10 | CCCCOc1ccc(C[C@@H]2NC(=O)[C@H](CC(C)C)OC2O)cc1 (stereo partly drawn) [Compound 10, (2S,5S)-5-((4-butoxyphenyl)methyl)-6-hydroxy-2-(2-methylpropyl)-3-morpholinone] | 0.52 µM | –
11 | CC(C)C[C@@H]1OC(O)[C@H](Cc2ccc(OCC3CCCCC3)cc2)NC1=O (stereo partly drawn) [Compound 11, (2S,5S)-5-((4-(cyclohexylmethoxy)phenyl)methyl)-6-hydroxy-2-(2-methylpropyl)-3-morpholinone] | 0.45 µM | –
12 | CC(C)C[C@@H]1OC(O)[C@H](Cc2ccccc2F)NC1=O (stereo partly drawn) [Compound 12, (2S,5S)-5-((2-fluorophenyl)methyl)-6-hydroxy-2-(2-methylpropyl)-3-morpholinone] | 2.1 µM | 83.9 to 87.9 °C
13 | CC(C)C[C@@H]1OC(O)[C@H](Cc2ccccc2Cl)NC1=O (stereo partly drawn) [Compound 13, (2S,5S)-5-((2-chlorophenyl)methyl)-6-hydroxy-2-(2-methylpropyl)-3-morpholinone] | 0.93 µM | –
14 | CC(C)C[C@@H]1OC(O)[C@H](COCc2ccccc2)NC1=O (stereo partly drawn) [Compound 14, (2S,5S)-5-benzyloxymethyl-6-hydroxy-2-(2-methylpropyl)-3-morpholinone] | 0.82 µM | –
15 | CC(C)C[C@@H]1OC(O)[C@H](CCCCNC(=O)c2ccccc2)NC1=O (stereo partly drawn) [Compound 16, (2S,5S)-5-(4-(benzoylamino)butyl)-6-hydroxy-2-(2-methylpropyl)-3-morpholinone] | 1.1 µM | 128.4 to 129 °C
16 | (2S,5S)-5-((4-biphenyl)methyl)-6-hydroxy-2-(2-methylpropyl)-3-morpholinone [Compound 15] | 0.25 µM | –
